Results reported in US8772348B2, “Materials and methods for pest control” (priority 2009, dated 2014).
Like-named read-outs stand apart in the source and are kept apart here.

Assays:
Aedes aegypti [1] = conditions: filter paper discs, after a 24-hour exposure
Protocol: Briefly, yellow fever mosquito, Ae. aegypti were obtained from strains that have been cultured in the laboratory of the Entomology and Nematology Department, University of Florida.
The mortality rate is measured after a 2-hour, 4-hour and 24-hour exposure period. Ataxic mosquitoes are considered dead.
The ability of Ae. aegypti to recover from insecticidal exposure is also investigated. After a 2-hour exposure, each set of Ae. aegypti is transferred into a separate jar. The mortality rate is measured at two time intervals: first, immediately at the transfer (2 hours after the initial exposure), and second, 22 hours after the transfer (24 hours after the initial exposure).

Aedes aegypti [2] = conditions: formulation on plywood panels at 1.67 mg cm^−2, 2 h exposure, mortality 24 h after initial exposure
Protocol: Briefly, after mosquitoes are assayed on unpainted plywood panel boards with formulation at a concentration of 1.67 mg cm^−2 for 2 hours, they are transferred into a separate glass jar, and held for another 24 hours. The mortality rate is measured daily for a continuous 4 days (Day 1 starts at 24 hours after the transfer), as is determined using the same procedures as are illustrated in Example 2.
(§1) Plywood panels (225 cm^2) were treated with chemicals at a rate of 1.67 mg cm^−2. Panels were treated on day 0 and was held until exposure on post-treatment day. Mosquitoes were exposed to chemicals for 2 h, and mortality rate was assessed 24 h after initial exposure. Control contained formulation ingredients without semiochemicals.

Musca domestica [3] = conditions: formulation on plywood panels, 3.33 mg cm^−2 (footnote 1.67), 2 h exposure, mortality 24 h after
Protocol: Briefly, after Musca domestica is exposed to formulations at concentration of 3.33 mg cm^−2 for 2 hours, each set is transferred into a separate glass jar, and held for another 24 hours.
as §1

Musca domestica [4] = conditions: M. domestica; formulation on plywood panels at 1.67 mg cm^−2; mortality 24 h after
Protocol: Briefly, each fly strain is divided into eight sets: three sets as the experiment, four sets as the positive control, and one set as the negative control. Flies are assayed on unpainted plywood panel boards that have been previously exposed to natural summer weather conditions for at least 10 days. […] The positive control set is treated with permethrin, geranyl acetone, rosalva or citronellol. The negative control set is treated with water. The formulation is applied at a uniform rate of 7.5 ml per 225 cm^2, sufficient to cover the entire panel without dripping. Subsequently, the treated panel boards are dried for about an hour.
In each set, 20 adult flies are placed onto the panel boards. Flies are secured with wooden embroidery hoops, covered with a coarse mesh screen cloth previously sprayed with the respective formulation. After 4 hours, flies are transferred into a clean jar. The mortality rate is measured 24 hours after the transfer, and is determined using the same procedures as are illustrated in Example 2.
as §1, with “mgcm^−2.” for “mg cm^−2.”, “and” for “and was”

For `CC1(C)CCCC2=C1CC(C=O)CC2` (stereo not drawn) [Cyclemone A, 2-naphthaldehyde, 1,2,3,4,5,6,7,8-octahydro-8,8-dimethyl], the mortality rate (Aedes aegypti [1]) was about 100%, the “% mortality on various days following treatment” value (Aedes aegypti [2]; day 1) was 100.00a % and the “% mortality on various days following treatment” value (Aedes aegypti [2]; day 2) was 72.00b %. The “% mortality on various days following treatment” value (Aedes aegypti [2]; day 3) was 28.0b %, the “% mortality on various days following treatment” value (Aedes aegypti [2]; day 4) was 13.0b % and the “% mortality on various days following treatment” value (Musca domestica [3]; day 1) was 100.00a %. For the same molecule, the “% mortality on various days following treatment” value (Musca domestica [3]; day 2) was 49.25b %, the “% mortality on various days following treatment” value (Musca domestica [3]; day 3) was 48.25b % and the “% mortality on various days following treatment” value (Musca domestica [3]; day 5) was 27.75c %. The “% mortality on various days following treatment” value (Musca domestica [3]; day 7) was 18.75b %, the “% mortality on various days following treatment” value (Musca domestica [3]; day 14) was 9.00b % and the “% mortality” value (Musca domestica [4]) was 48.20b %.
